Source: the NIST ThermoML archive (doi:10.1021/acs.jced.7b00429)
Numbers after ± are expanded uncertainties.

Assay: xn = mol fraction of the nth substance listed
Settings: 100 kPa, Liquid; for viscosity: Falling or rolling sphere viscometry; for speed of sound: Frequency=3 MHz, Single path-length method; for mass density: Vibrating tube method

CCn1cc[n+](C)c1.O=S(=O)([O-])C(F)(F)F [1-ethyl-3-methylimidazolium trifluoromethanesulfonate] + CC#N
Settings | mass density [kg/m3] | speed of sound [m/s] | viscosity [mPa·s]
298.15 K, x1 = 0.1026 | 964.8 ± 2.1 | 1309.2 ± 10 | 0.85 ± 0.26
298.15 K, x1 = 0.2053 | 1080.98 ± 2.1 | 1337.4 ± 10 | 1.88 ± 0.56
298.15 K, x1 = 0.3044 | 1158.48 ± 2.1 | 1360.9 ± 10 | 2.99 ± 0.9
298.15 K, x1 = 0.3948 | 1210.19 ± 2.1 | 1377.9 ± 10 | 4.51 ± 1.4
298.15 K, x1 = 0.498 | 1256.19 ± 2.1 | 1394.4 ± 10 | 7.44 ± 2.2
298.15 K, x1 = 0.595 | 1289.82 ± 2.2 | 1408 ± 10 | 10.9 ± 3.3
298.15 K, x1 = 0.6936 | 1317.8 ± 2.3 | 1418.6 ± 10 | 15.92 ± 4.8
298.15 K, x1 = 0.801 | 1342.54 ± 2.4 | 1427.1 ± 10 | 24.05 ± 7.2
298.15 K, x1 = 0.9005 | 1362.36 ± 2.4 | 1432.6 ± 10 | 33.72 ± 10
298.15 K, x1 = 1 | 1379.91 ± 2.5 | 1436 ± 10 | 45.67 ± 14
303.15 K, x1 = 0.1026 | 959.72 ± 2.1 | 1292 ± 10 | 0.8 ± 0.24
303.15 K, x1 = 0.2053 | 1076.24 ± 2.1 | 1321.9 ± 10 | 1.82 ± 0.55
303.15 K, x1 = 0.3044 | 1153.77 ± 2.1 | 1346.7 ± 10 | 2.74 ± 0.82
303.15 K, x1 = 0.3948 | 1205.75 ± 2.1 | 1364.5 ± 10 | 4.13 ± 1.2
303.15 K, x1 = 0.498 | 1251.68 ± 2.1 | 1381.5 ± 10 | 6.64 ± 2
303.15 K, x1 = 0.595 | 1285.38 ± 2.2 | 1395.5 ± 10 | 9.46 ± 2.8
303.15 K, x1 = 0.6936 | 1313.46 ± 2.3 | 1406.6 ± 10 | 13.8 ± 4.1
303.15 K, x1 = 0.801 | 1338.3 ± 2.3 | 1415.2 ± 10 | 20.32 ± 6.1
303.15 K, x1 = 0.9005 | 1358.19 ± 2.4 | 1421.3 ± 10 | 27.94 ± 8.4
303.15 K, x1 = 1 | 1375.71 ± 2.5 | 1425.4 ± 10 | 38.31 ± 12
308.15 K, x1 = 0.1026 | 954.64 ± 2.1 | 1274.9 ± 10 | 0.75 ± 0.23
308.15 K, x1 = 0.2053 | 1071.2 ± 2.1 | 1306.5 ± 10 | 1.65 ± 0.5
308.15 K, x1 = 0.3044 | 1149.07 ± 2.1 | 1332.5 ± 10 | 2.52 ± 0.76
308.15 K, x1 = 0.3948 | 1200.93 ± 2.1 | 1351.3 ± 10 | 3.76 ± 1.1
308.15 K, x1 = 0.498 | 1247.19 ± 2.1 | 1368.7 ± 10 | 5.95 ± 1.8
308.15 K, x1 = 0.595 | 1280.97 ± 2.2 | 1383.2 ± 10 | 8.41 ± 2.5
308.15 K, x1 = 0.6936 | 1309.13 ± 2.3 | 1394.7 ± 10 | 12.08 ± 3.6
308.15 K, x1 = 0.801 | 1334.18 ± 2.3 | 1403.4 ± 10 | 17.54 ± 5.3
308.15 K, x1 = 0.9005 | 1354.05 ± 2.4 | 1409.7 ± 10 | 23.87 ± 7.2
308.15 K, x1 = 1 | 1371.51 ± 2.5 | 1414.3 ± 10 | 32.38 ± 9.7
313.15 K, x1 = 0.1026 | 949.54 ± 2.1 | 1257.9 ± 10 | 0.72 ± 0.22
313.15 K, x1 = 0.2053 | 1066.32 ± 2.1 | 1291.1 ± 10 | 1.54 ± 0.46
313.15 K, x1 = 0.3044 | 1144.37 ± 2.1 | 1318.3 ± 10 | 2.34 ± 0.7
313.15 K, x1 = 0.3948 | 1196.39 ± 2.1 | 1338.2 ± 10 | 3.46 ± 1
313.15 K, x1 = 0.498 | 1242.71 ± 2.1 | 1356 ± 10 | 5.37 ± 1.6
313.15 K, x1 = 0.595 | 1276.68 ± 2.2 | 1371.1 ± 10 | 7.51 ± 2.3
313.15 K, x1 = 0.6936 | 1304.82 ± 2.2 | 1382.9 ± 10 | 10.66 ± 3.2
313.15 K, x1 = 0.801 | 1330.05 ± 2.3 | 1391.6 ± 10 | 15.27 ± 4.6
313.15 K, x1 = 0.9005 | 1349.89 ± 2.4 | 1398.1 ± 10 | 20.58 ± 6.2
313.15 K, x1 = 1 | 1367.36 ± 2.5 | 1403 ± 10 | 27.68 ± 8.3
318.15 K, x1 = 0.1026 | 944.58 ± 2.1 | 1241 ± 10 | 0.68 ± 0.2
318.15 K, x1 = 0.2053 | 1061.52 ± 2.1 | 1275.8 ± 10 | 1.42 ± 0.43
318.15 K, x1 = 0.3044 | 1139.57 ± 2.1 | 1304.3 ± 10 | 2.16 ± 0.65
318.15 K, x1 = 0.3948 | 1191.77 ± 2.1 | 1325.1 ± 10 | 3.17 ± 0.95
318.15 K, x1 = 0.498 | 1238.2 ± 2.1 | 1343.4 ± 10 | 4.87 ± 1.5
318.15 K, x1 = 0.595 | 1272.32 ± 2.2 | 1359 ± 10 | 6.75 ± 2
318.15 K, x1 = 0.6936 | 1300.45 ± 2.2 | 1371.3 ± 10 | 9.46 ± 2.8
318.15 K, x1 = 0.801 | 1325.89 ± 2.3 | 1380.2 ± 10 | 13.39 ± 4
318.15 K, x1 = 0.9005 | 1345.74 ± 2.4 | 1387.1 ± 10 | 17.89 ± 5.4
318.15 K, x1 = 1 | 1363.21 ± 2.5 | 1392.7 ± 10 | 23.86 ± 7.2
323.15 K, x1 = 0.1026 | 939.47 ± 2.1 | 1224.1 ± 10 | 0.65 ± 0.2
323.15 K, x1 = 0.2053 | 1056.45 ± 2.1 | 1260.7 ± 10 | 1.38 ± 0.41
323.15 K, x1 = 0.3044 | 1134.77 ± 2.1 | 1290.5 ± 10 | 2.01 ± 0.6
323.15 K, x1 = 0.3948 | 1187.31 ± 2.1 | 1312.2 ± 10 | 2.91 ± 0.87
323.15 K, x1 = 0.498 | 1233.78 ± 2.1 | 1330.9 ± 10 | 4.43 ± 1.3
323.15 K, x1 = 0.595 | 1267.96 ± 2.2 | 1347.1 ± 10 | 5.96 ± 1.8
323.15 K, x1 = 0.6936 | 1296.17 ± 2.2 | 1359.7 ± 10 | 8.27 ± 2.5
323.15 K, x1 = 0.801 | 1321.8 ± 2.3 | 1368.6 ± 10 | 11.66 ± 3.5
323.15 K, x1 = 0.9005 | 1341.58 ± 2.4 | 1375.7 ± 10 | 15.49 ± 4.6
323.15 K, x1 = 1 | 1359.07 ± 2.5 | 1381.7 ± 10 | 20.75 ± 6.2
